ChEMBL document CHEMBL3045805, “Synthesis, characterization, and antimicrobial activity of some new coumarin derivatives” (Med Chem Res, 2012)
Values after ≈ are worked out from the molar mass of the structure shown.

Experiments:
Escherichia coli [1] = assay: Antibacterial activity against Escherichia coli after 24 hr; assay type: functional
Escherichia coli [2] = assay: Antibacterial activity against Escherichia coli at 50 ug/ml after 24 hr by agar diffusion method; assay type: functional; conditions: read-out: DIZ
Staphylococcus aureus [3] = assay: Antibacterial activity against Staphylococcus aureus after 24 hr; assay type: functional
Klebsiella pneumoniae [4] = assay: Antibacterial activity against Klebsiella pneumoniae after 24 hr; assay type: functional
Klebsiella pneumoniae [5] = assay: Antibacterial activity against Klebsiella pneumoniae at 50 ug/ml after 24 hr by agar diffusion method; assay type: functional; conditions: read-out: DIZ
Staphylococcus aureus [6] = assay: Antibacterial activity against Staphylococcus aureus at 50 ug/ml after 24 hr by agar diffusion method; assay type: functional; conditions: read-out: DIZ
Staphylococcus aureus [7] = assay: Antibacterial activity against Staphylococcus aureus at 1 ug/ml after 24 hr by agar diffusion method; conditions: read-out: DIZ
Klebsiella pneumoniae [8] = assay: Antibacterial activity against Klebsiella pneumoniae at 1 ug/ml after 24 hr by agar diffusion method; conditions: read-out: DIZ

Row | Compound | MIC (Escherichia coli [1]) | MIC (Staphylococcus aureus [3]) | MIC (Klebsiella pneumoniae [4]) | zone of inhibition at 50 µg/mL (Escherichia coli [2]) | zone of inhibition at 50 µg/mL (Klebsiella pneumoniae [5]) | zone of inhibition at 50 µg/mL (Staphylococcus aureus [6]) | zone of inhibition at 1 µg/mL (Staphylococcus aureus [7]) | zone of inhibition at 1 µg/mL (Klebsiella pneumoniae [8])
1 | COc1ccc2c(CNc3ccc4c(C)cc(=O)oc4c3)cc(=O)oc2c1 | 45.9 µg/mL (≈ 126 µM) | 91.9 µg/mL (≈ 253 µM) | 22.9 µg/mL (≈ 63 µM) | 12 mm | 20 mm | 10 mm |  | 
2 | COc1ccc2c(CNc3ccc4c(C)cc(=O)oc4c3)c(Br)c(=O)oc2c1 | 46.4 µg/mL (≈ 105 µM) | 92.8 µg/mL (≈ 210 µM) | 46.4 µg/mL (≈ 105 µM) | 11 mm | 14 mm | 10 mm |  | 
3 | CCOC(=O)c1oc2cc(OC)ccc2c1CNc1ccc2c(C)cc(=O)oc2c1 | 51.6 µg/mL (≈ 127 µM) | > 100 µg/mL | 25.8 µg/mL (≈ 63.3 µM) | 11 mm | 14 mm | 11 mm |  | 
4 | Cc1ccc(S(=O)(=O)NNC(=O)COc2ccc3c(C)cc(=O)oc3c2)cc1 | 98.4 µg/mL (≈ 245 µM) | 98.4 µg/mL (≈ 245 µM) | 49.2 µg/mL (≈ 122 µM) | 11 mm | 10 mm | 10 mm |  | 
5 | Cc1cc(=O)oc2cc(OCC(=O)NNS(=O)(=O)c3ccc(Cl)cc3)ccc12 | 55.3 µg/mL (≈ 131 µM) | > 100 µg/mL | 27.7 µg/mL (≈ 65.5 µM) | 12 mm | 10 mm | 9 mm |  | 
6 | Cc1cc(=O)oc2cc(OCC(=O)NNS(=O)(=O)c3ccc(C(F)(F)F)cc3)ccc12 | 44.5 µg/mL (≈ 97.5 µM) | 89.1 µg/mL (≈ 195 µM) | 44.5 µg/mL (≈ 97.5 µM) | 13 mm | 15 mm | 11 mm |  | 
7 | O=C(O)c1cn(C2CC2)c2cc(N3CCNCC3)c(F)cc2c1=O [CIPROFLOXACIN] | 0.6 µg/mL (≈ 1.81 µM) | 0.6 µg/mL (≈ 1.81 µM) | 1.3 µg/mL (≈ 3.92 µM) |  |  |  | 24 mm | 20 mm

Second part, led by results:

Row | MIC (Escherichia coli [1]) | MIC (Staphylococcus aureus [3]) | MIC (Klebsiella pneumoniae [4]) | Compound | zone of inhibition at 50 µg/mL (Escherichia coli [2]) | zone of inhibition at 50 µg/mL (Klebsiella pneumoniae [5]) | zone of inhibition at 50 µg/mL (Staphylococcus aureus [6]) | zone of inhibition at 1 µg/mL (Staphylococcus aureus [7]) | zone of inhibition at 1 µg/mL (Klebsiella pneumoniae [8])
8 | 24.1 µg/mL (≈ 59.3 µM) | 96.6 µg/mL (≈ 238 µM) | 48.3 µg/mL (≈ 119 µM) | Cc1cc(=O)oc2cc(OCC(=O)NNS(=O)(=O)c3ccc(F)cc3)ccc12 | 12 mm | 12 mm | 9 mm |  | 
9 | 42.6 µg/mL (≈ 91.2 µM) | 85.1 µg/mL (≈ 182 µM) | 42.6 µg/mL (≈ 91.2 µM) | Cc1cc(=O)oc2cc(OCC(=O)NNS(=O)(=O)c3ccc(Br)cc3)ccc12 | 12 mm | 11 mm | 14 mm |  | 
10 | 26 µg/mL (≈ 60 µM) | > 100 µg/mL | 52 µg/mL (≈ 120 µM) | Cc1cc(=O)oc2cc(OCC(=O)NNS(=O)(=O)c3cccc([N+](=O)[O-])c3)ccc12 | 13 mm | 14 mm | 10 mm |  | 
11 | 28.9 µg/mL (≈ 70.5 µM) | > 100 µg/mL | 57.8 µg/mL (≈ 141 µM) | Cc1cc(=O)oc2cc(OCC(=O)NNc3ccnc4c(Cl)cccc34)ccc12 | 13 mm | 13 mm | 10 mm |  | 
